Source: patent publication US20090209536A1, “AMINOQUINAZOLINE CANNABINOID RECEPTOR MODULATORS FOR TREATMENT OF DISEASE” (KALYPSYS, INC., priority 2007, published 2009)
Read-outs that look alike come from different tables or passages of the source.

How the values were obtained:
[1] = target: T1, human cannabinoid receptor type 2 (Homo sapiens, UniProt P34972); test: Human CB2 Radioligand Binding Assay; conditions: membranes from stably transfected CHO CB2 cells
T1 construct: expressed in transfected cells; membrane preparation
T1 sequence (P34972 whole entry): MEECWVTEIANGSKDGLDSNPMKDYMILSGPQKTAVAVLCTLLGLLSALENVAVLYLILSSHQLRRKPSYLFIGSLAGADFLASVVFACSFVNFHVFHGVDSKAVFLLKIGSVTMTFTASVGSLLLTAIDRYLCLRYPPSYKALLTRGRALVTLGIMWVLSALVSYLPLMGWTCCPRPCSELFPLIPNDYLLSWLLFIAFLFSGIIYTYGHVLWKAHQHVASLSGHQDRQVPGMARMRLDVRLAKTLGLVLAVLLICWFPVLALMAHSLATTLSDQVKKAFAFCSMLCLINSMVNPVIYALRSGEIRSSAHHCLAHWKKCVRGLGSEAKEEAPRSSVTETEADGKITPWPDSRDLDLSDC
Procedure, shortened: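 Test compounds (10 uM final, or dose-response) competed with [3H]CP-55,940, used at the Kd determined per membrane lot, for binding to stable human CB2-CHO membranes over 90 min at 30° C in pH 7.4 Tris/EGTA/MgCl2/BSA buffer. GF/C filtration then scintillation counting; 100 nM CP-55,940 defined 100% efficacy.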

[2] = target: T2, human cannabinoid receptor type 1 (Homo sapiens, UniProt P21554); test: Human CB1 Radioligand Binding Assay (basis of selectivity, CB2 vs. CB1); conditions: CB1: HEK 293 EBNA cells expressing human CB1; CB2: CHO CB2 membranes
T2 construct: purchased Perkin Elmer RBHCB1M; host or cells: HEK 293 EBNA cells
T2 sequence (P21554 whole entry): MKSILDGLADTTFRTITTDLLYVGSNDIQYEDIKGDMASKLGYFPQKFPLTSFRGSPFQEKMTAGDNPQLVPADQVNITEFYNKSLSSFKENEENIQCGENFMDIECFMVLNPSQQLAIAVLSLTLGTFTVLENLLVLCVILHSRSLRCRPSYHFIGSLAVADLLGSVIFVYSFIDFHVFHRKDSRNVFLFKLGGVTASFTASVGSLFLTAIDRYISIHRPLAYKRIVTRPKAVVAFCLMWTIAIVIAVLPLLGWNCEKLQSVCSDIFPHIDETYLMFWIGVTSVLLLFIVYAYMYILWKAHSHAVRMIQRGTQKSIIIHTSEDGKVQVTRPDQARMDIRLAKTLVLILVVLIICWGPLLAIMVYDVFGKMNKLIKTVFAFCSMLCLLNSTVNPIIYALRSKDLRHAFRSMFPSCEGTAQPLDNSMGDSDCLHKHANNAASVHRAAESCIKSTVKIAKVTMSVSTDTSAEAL
Description: 2. Human CB1 Radioligand Binding Assay
The incubation buffer was composed of 50 mM Tris-HCl pH 7.4, 2.5 mM EDTA, 5 mM MgCl2, 5.0 mg/ml fatty acid free BSA and the wash buffer was composed of 50 mM Tris-HCl pH 7.4, 2.5 mM EDTA, 5 mM MgCl2, 0.5 mg/ml fatty acid free BSA.

[3] = CB2 Ligand Binding Asssay EC50, competition with [3H] CP-55,940
[4] = competition with [3H] CP-55,940, read-out: CB2 Ligand Binding Asssay EC50

SMILES | Selectivity, CB2 vs. CB1 [2] | EC50 [1, 4] | EC50 [1, 3]
O=S(=O)(NCc1nc(N2CCOCC2)c2ccccc2n1)c1ccc2ccccc2c1 [Example 301, N-((4-Morpholinoquinazolin-2-yl)methyl)naphthalene-2-sulfonamide] | − (− indicates ≦ 10−fold) |  | > 1000 nM
O=S(=O)(NCc1nc(Nc2ccccc2)c2ccccc2n1)c1cccc2ccccc12 [Example 302, N-((4-(Phenylamino)quinazolin-2-yl)methyl)naphthalene-1-sulfonamide] | − (− indicates ≦ 10−fold) | > 1000 nM | 
c1ccc(NCc2nc(Nc3ccccc3)c3ccccc3n2)cc1 [Example 303, N-Phenyl-2-((phenylamino)methyl)quinazolin-4-amine] | − (− indicates ≦ 10−fold) | > 1000 nM | 
O=S(=O)(NCc1nc(NC2CCCC2)c2ccccc2n1)c1cccc2ccccc12 [Example 305, N-((4-(Cyclopentylamino)quinazolin-2-yl)methyl)naphthalene-1-sulfonamide] | − (− indicates ≦ 10−fold) | < 1000 nM | 
O=S(=O)(NCc1nc(N2Cc3ccccc3C2)c2ccccc2n1)c1cccc2ccccc12 [Example 308, N-((4-(isoindolin-2-yl)quinazolin-2-yl)methyl)naphthalene-1-sulfonamide] | − (− indicates ≦ 10−fold) | < 1000 nM | 
O=S(=O)(NCc1nc(N2CCCC2)c2ccc(Cl)cc2n1)c1cccc2ccccc12 [Example 309, N-((7-Chloro-4-(pyrrolidin-1-yl)quinazolin-2-yl)methyl)naphthalene-1-sulfonamide] | + (+ indicates > 10−fold) | < 1000 nM | 
CCN(CC)C(=O)c1ccc2nc(-c3ccccc3Cl)nc(N3CCN(C)CC3)c2c1 [Example 311, 2-(2-Chlorophenyl)-N,N-diethyl-4-(4-methylpiperazin-1-yl)quinazoline-6-carboxamide] | + (+ indicates > 10−fold) | < 1000 nM | 
CC1CCN(c2nc(-c3ccccc3Cl)nc3ccc(C(=O)NC4CCCCC4)cc23)CC1 [Example 312, 2-(2-Chlorophenyl)-N-cyclohexyl-4-(4-methylpiperidin-1-yl)quinazoline-6-carboxamide] | − (− indicates ≦ 10−fold) | < 1000 nM | 
CCN(CC)C(=O)c1ccc2nc(-c3ccccc3Cl)nc(N3CCOCC3)c2c1 [Example 315, 2-(2-Chlorophenyl)-N,N-diethyl-4-morpholinoquinazoline-6-carboxamide] | − (− indicates ≦ 10−fold) |  | > 1000 nM

Continued, in another order:

Selectivity, CB2 vs. CB1 [2] | EC50 [1, 4] | SMILES | EC50 [1, 3]
− (− indicates ≦ 10−fold) | < 1000 nM | CC(C)Nc1nc(CNS(=O)(=O)c2cccc3ccccc23)nc2ccccc12 [Example 304, N-((4-(Isopropylamino)quinazolin-2-yl)methyl)naphthalene-1-sulfonamide] | 
− (− indicates ≦ 10−fold) | < 1000 nM | COc1cc2nc(CNS(=O)(=O)c3cccc4ccccc34)nc(N3CCCC3)c2cc1OC [Example 307, N-((6,7-Dimethoxy-4-(pyrrolidin-1-yl)quinazolin-2-yl)methyl)naphthalene-1-sulfonamide] | 
− (− indicates ≦ 10−fold) | < 1000 nM | COC(=O)c1ccc2nc(-c3ccccc3Cl)nc(N3CCN(C)CC3)c2c1 [Example 310, Methyl 2-(2-chlorophenyl)-4-(4-methylpiperazin-1-yl)quinazoline-6-carboxylate] | 
− (− indicates ≦ 10−fold) | < 1000 nM | COc1ccc(CNC(=O)c2ccc3nc(-c4ccccc4Cl)nc(N4CCC(C)CC4)c3c2)cc1 [Example 313, 2-(2-Chlorophenyl)-N-(4-methoxybenzyl)-4-(4-methylpiperidin-1-yl)quinazoline-6-carboxamide] | 
+ (+ indicates > 10−fold) | > 1000 nM | CCOC(=O)N1CCN(c2nc(-c3ccccc3Cl)nc3ccc(C(=O)N(CC)CC)cc23)CC1 [Example 314, Ethyl 4-(2-(2-chlorophenyl)-6-(diethylcarbamoyl)quinazolin-4-yl)piperazine-1-carboxylate] | 
